Assay type in all cases: cell-based
The subject of series [1] is Herpes Simplex Virus Type 1, HF Strain. Kind of series: Inhibitory effect against herpes simplex virus (reduction of viral cytopathogenic effect) in Vero cells. An excerpt:
(§1) Vero cells were infected with 100 TCID₅₀ (50% tissue-culture infected doses) of viruses and cultured with various concentrations of the compounds.
On the technique in general: Cytopathic effects are the visible damage that an infection or toxin causes in cultured cells.

The nature of series [2]: Cytotoxicity in non-infected control culture (Vero cells). The settings on record: monkey.
From the text: as §1

Series [3] is described as follows: Cytotoxicity in non-infected control culture (FL cells). The settings on record: human, non-infected FL cell control culture, eight days.
The subject of a further series is Adenovirus, Type 3. In words: Antiadenovirus activity (reduction of viral cytopathogenic effect) in FL cells. The note with it: Human mastadenovirus B, 192 h; 50% inhibitory dose; FL cells infected with 100 TCID50; observed eight days after the infection; read-out: ID50 (the source's name). The text has this:
FL cells were infected with 100 TCID₅₀ (50% tissueculture infected doses) of viruses and cultured with various concentrations of the compouns.

The mark [4] stands for this setting: Human alphaherpesvirus 1, 72 h, concentration required to reduce the viral cytopathogenic effect by 50%, Vero cells infected with 100 TCID50, observed three days after the infection, read-out: ID50 (the source's name).
The mark [5] stands for this setting: Human alphaherpesvirus 1, Vero, 72 h, read-out: ID50.

Values after ≈ are worked out from the molar mass of the structure shown. Read-outs that look alike come from different tables or passages of the source.

As for `Nc1nc2c(ncn2[C@@H]2C[C@H](CO)[C@H](O)C2)c(=O)[nH]1` [9-[(1R, 3R, 4R)-4-hydroxymethyl-3-hydroxycyclopentan-1-yl]guanine], the IC50 was found to be 0.049 µg/mL (≈ 0.185 µM) in series [1] (setting [4]) and 0.39 µg/mL (≈ 1.47 µM) in the series with Adenovirus, Type 3. This molecule returned an MCC at 72 h in series [2] (vero cells) of 12.5 µg/mL. Moreover, the MCC at 192 h in series [3] is 3.13 µg/mL.

As to `Nc1nc2c(ncn2COCCO)c(=O)[nH]1` [Acyclovir], the IC50 in series [1] (setting [4]) was determined as 3.13 µg/mL (≈ 13.9 µM); with Adenovirus, Type 3, 200 µg/mL (≈ 888 µM). For the same molecule, the MCC at 72 h in series [2] (vero cells) is 800 µg/mL. In series [3], this molecule registered an MCC at 192 h of 400 µg/mL.

Turning to `Nc1ncnc2c1ncn2[C@@H]1O[C@H](CO)[C@@H](O)[C@@H]1O` [Ara-A], the IC50 in series [1] (setting [5]) was found to be 12.5 µg/mL (≈ 46.8 µM). Moreover, the MCC at 72 h in series [2] (vero cells) was 100 µg/mL.

With `Nc1ccn([C@@H]2O[C@H](CO)[C@@H](O)[C@@H]2O)c(=O)n1` [Ara-C], in series [1] (setting [5]), the IC50 was determined as 0.39 µg/mL (≈ 1.6 µM). Further, the MCC at 72 h in series [2] (minimum concentration to cause a visible disruption of normal cell morphology, non-infected Vero cells, three days, read-out: Cytotoxicity) was 0.78 µg/mL.

For the molecule `O=c1[nH]c(=O)n([C@H]2C[C@H](O)[C@@H](CO)O2)cc1Br` [BUDR], the IC50 in series [1] (setting [4]) worked out at 25 µg/mL (≈ 81.4 µM). Also, the MCC at 72 h in series [2] (vero cells) turned out to be 100 µg/mL.

In the case of `O=c1[nH]c(=O)n([C@H]2C[C@H](O)[C@@H](CO)O2)cc1I` [IUDR], the IC50 in series [1] (setting [4]) was determined as 50 µg/mL (≈ 141 µM). Moreover, the MCC at 72 h in series [2] (vero cells) was 200 µg/mL.

These data come from EP0219838A2, “Carbocyclic purine nucleosides, their production and use” (Takeda Chemical Industries, Ltd., priority 1985, dated 1987).
